From PubChem BioAssay AID1199 (EPA DSSTox, 2008)
Active and inactive are the calls of the source.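 Rule for the calls: active = a tumour-causing dose and a tumour site recorded for mice in at least one sex group; inconclusive = only government mouse studies exist and were judged inadequate; inactive = mouse studies exist but none gave tumours.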

System: mouse carcinogenicity bioassay, TD50 from CPDB
Experiment: DSSTox (CPDBAS) Carcinogenic Potency Database Summary Mouse Bioassay Results
Text: The Carcinogenic Potency Database (CPDB) is a unique and widely used international resource of the results of over 6500 chronic, long-term animal cancer tests on over 1500 chemical substances. The CPDB provides easy access to the bioassay literature, with qualitative and quantitative analyses of both positive and negative experiments that have been published over the past 50 years in the general literature and by the National Cancer Institute/National Toxicology Program. The CPDB standardizes the diverse literature of cancer bioassays that vary widely in protocol, histopathological examination and nomenclature, and in the published author's choices of what information to provide in their papers. Results are reported in the CPDB for tests in rats, mice, hamsters, dogs, and nonhuman primates, and are based on the most positive result among all experiments for each sex-species. The DSSTox CPDBAS (all species) file incorporates data from the CPDB Summary Tables for the full list of over 1500 chemical substances tested in at least one species. Summary bioassay results for Mouse (TD50, tumor sites, male, female, both sexes) are provided in the CPDB Summary Tables and the DSSTox CPDBAS file for over 1000 chemical substances.
TD50 is a standardized quantitative measure of carcinogenic potency (analogous to an LD50) and is reported in the CPDB Summary Table for each species. Activity Score for actives is computed by mapping of LOG10 (1/TD50_Mouse_mmol) activity values spanning range [MIN, MAX] onto Integer 1-100 Activity Score range, where 100 is highest potency and 1 is lowest: Activity Score = 100 * INTEGER[(log10(1/Activity) - MIN)/(MAX […] MIN)]. If activity is reported but no TD50_Mouse_mmol value is computed, such as for a mixture, the Activity Score is assigned the activity value "50". […] Target sites are reported for each sex-species group with a positive result in the CPDB on the basis of a positive author's opinion for the particular site, using all results from both the general literature and NCI/NTP bioassays. If a chemical has two or more target sites listed, the results may be from different experiments, and a single site may be a target organ in more than one experiment, as well. Blank entry in TargetSites field indicates no results reported.

[1] = TD50_Mouse_Note: positive test results only by intraperitoneal or intravenous injection, TargetSites_Mouse_Female: peritoneal cavity
[2] = TD50_Mouse_Note: no positive results, TargetSites_Mouse_Female: no positive results
[3] = TargetSites_Mouse_Female: liver
[4] = TD50_Mouse_Note: TD50 is harmonic mean of more than one positive test, TargetSites_Mouse_Female: liver
[5] = TargetSites_Mouse_Female: no positive results

c1ccoc1
Potency (TD50_Mouse_Note: TD50 is harmonic mean of more than one positive test, TargetSites_Mouse_Female: adrenal gland, liver): 0.04 mmol/kg/day

COc1ccccc1N
Potency (TD50_Mouse_Note: TD50 is harmonic mean of more than one positive test, TargetSites_Mouse_Female: urinary bladder): 6.05 mmol/kg/day

ClCOCCOCCl
Potency [1]: 0.0291 mmol/kg/day

CC1=C[C@H]2O[C@@H]3[C@H](O)[C@@H](O)[C@@](C)(C34CO4)[C@@]2(CO)[C@H](O)C1=O (some centres undefined)
outcome [2]: inactive

BrCCBr
Potency (TD50_Mouse_Note: TD50 is harmonic mean of more than one positive test, greater than ten-fold variation among TD50 values for positive res, TargetSites_Mouse_Female: esophagus, lung, mammary gland, nasal cavity, stomach, subcutaneous tissue, vascular system): 0.0397 mmol/kg/day

OO
Potency (TargetSites_Mouse_Female: small intestine): 222 mmol/kg/day

C=C(C)[C@H]1CC=C(C)C(=O)C1
outcome [2]: inactive; no positive results

Nc1c(Cl)cc([N+](=O)[O-])cc1Cl
outcome [2]: inactive; no positive results

Nc1ccc(N)cc1
outcome [2]: inactive; no positive results

ClCOCc1ccc(COCCl)cc1
Potency [1]: 0.0132 mmol/kg/day

O=C(O)CCCc1ccc(N(CCCl)CCCl)cc1
Potency (TD50_Mouse_Note: positive test results only by intraperitoneal or intravenous injection, TD50 is harmonic mean of more than one positive, TargetSites_Mouse_Female: lung): 0.000437 mmol/kg/day

CCCCC(CC)COP(=O)(OCC(CC)CCCC)OCC(CC)CCCC (centres undefined)
Potency [3]: 5.89 mmol/kg/day

S=C([S-])NCCNC(=S)[S-].[Zn+2]
outcome [2]: inactive; no positive results

CCCCNC(=O)NS(=O)(=O)c1ccc(C)cc1
outcome [2]: inactive; no positive results

COP(=S)(OC)SCn1nnc2ccccc2c1=O
outcome [2]: inactive; no positive results

NC(=O)N/N=C/c1ccc([N+](=O)[O-])o1
Potency (TargetSites_Mouse_Female: ovary): 0.155 mmol/kg/day

ClC(Cl)=C(Cl)Cl
Potency [4]: 0.953 mmol/kg/day

S=C1NCCN1
Potency (TD50_Mouse_Note: TD50 is harmonic mean of more than one positive test, TargetSites_Mouse_Female: liver, pituitary gland, thyroid gland): 0.23 mmol/kg/day

CN(C)[C@@H]1C(=O)C(C(N)=O)=C(O)[C@@]2(O)C(=O)C3=C(O)c4c(O)cccc4[C@@](C)(O)[C@H]3[C@H](O)[C@@H]12
outcome [2]: inactive; no positive results

CC#N
outcome [2]: inactive; no positive results

NC(N)=NC(N)=NCCc1ccccc1
outcome [2]: inactive; no positive results

C=CC#N
Potency (TD50_Mouse_Note: TD50 is harmonic mean of more than one positive test, TargetSites_Mouse_Female: harderian gland, stomach): 0.119 mmol/kg/day

Cc1ccccc1[N+](=O)[O-]
Potency (TD50_Mouse_Note: TD50 is harmonic mean of more than one positive test, TargetSites_Mouse_Female: large intestine, liver, vascular system): 0.933 mmol/kg/day

O=c1c(CO)c/c(=N/Nc2ccc(S(=O)(=O)O)c3ccccc23)c(=O)/c1=N/Nc1ccc(S(=O)(=O)O)c2ccccc12
outcome [2]: inactive; no positive results

CC(C)C(C(=O)OC(C#N)c1cccc(Oc2ccccc2)c1)c1ccc(Cl)cc1 (centres undefined)
outcome [2]: inactive; no positive results

CN[C@H]1CC[C@@H](c2ccc(Cl)c(Cl)c2)c2ccccc21
outcome [2]: inactive; no positive results

C[C@]12CC[C@@H]3c4ccc(O)cc4CC[C@H]3[C@@H]1CC[C@@H]2O
outcome [2]: inactive

CCOc1ccc(NC(C)=O)cc1N
Potency [5]: 10.7 mmol/kg/day

Oc1ccc(OCc2ccccc2)cc1
outcome [2]: inactive; no positive results

CCC[CH2][Sn]([CH2]CCC)([O]C(C)=O)[O]C(C)=O
outcome [2]: inactive; no positive results

OC(Cn1cncn1)(Cn1cncn1)c1ccc(F)cc1F
outcome [2]: inactive; no positive results

ClCC(Cl)CCl
Potency (TD50_Mouse_Note: TD50 is harmonic mean of more than one positive test, TargetSites_Mouse_Female: harderian gland, liver, oral cavity, stomach, uterus): 0.00593 mmol/kg/day

OC[P+](CO)(CO)CO
outcome [2]: inactive; no positive results

O=S(=O)(O)c1ccc(N=Nc2cc(S(=O)(=O)O)c3ccccc3c2O)c2ccccc12
outcome [2]: inactive; no positive results

Nc1ccc(S(=O)(=O)c2ccc(N)cc2)cc1
outcome [2]: inactive; no positive results

NCCCCCCCCCCC(=O)O
outcome [2]: inactive; no positive results

CCCCOCCO
Potency (TD50_Mouse_Note: TD50 is harmonic mean of more than one positive test, TargetSites_Mouse_Female: stomach): 14.5 mmol/kg/day

CCO
outcome [2]: inactive; no positive results

C=CCOC(=O)CC(C)C
Potency (TargetSites_Mouse_Female: hematopoietic system): 0.442 mmol/kg/day

CC1CCC(C(C)C)C(O)C1 (centres undefined)
outcome [2]: inactive; no positive results

Oc1ccc(-c2ccccc2)cc1
outcome [2]: inactive; no positive results

O=[N+]([O-])c1ccc(O)c([N+](=O)[O-])c1
outcome [2]: inactive | outcome (TargetSites_Mouse_BothSexes: no positive results): inactive

Cc1cc(-c2ccc(N)c(C)c2)ccc1N
Potency [5]: 0.1 mmol/kg/day

OC[C@H]1O[C@H](O[C@]2(CCl)O[C@H](CCl)[C@@H](O)[C@@H]2O)[C@H](O)[C@@H](O)[C@H]1Cl
outcome [2]: inactive; no positive results

CC(=O)OC/C=C(\C)CCC=C(C)C
outcome [2]: inactive; no positive results

Nc1ccc(Cc2ccc(N)cc2)cc1
Potency (TD50_Mouse_Note: TD50 is harmonic mean of more than one positive test, TargetSites_Mouse_Female: hematopoietic system, liver, thyroid gland): 0.119 mmol/kg/day

Cc1ccc(N)c(C)c1
Potency (TargetSites_Mouse_Female: lung): 0.0787 mmol/kg/day

CC(=O)C(N=Nc1ccc(-c2ccc(N=NC(C(C)=O)C(=O)Nc3ccccc3)c(Cl)c2)cc1Cl)C(=O)Nc1ccccc1 (centres undefined)
outcome [2]: inactive; no positive results

CC(C)OC(=O)Nc1ccccc1
outcome [2]: inactive; no positive results

CNC(=O)Oc1cc(C)c(N(C)C)c(C)c1
outcome [2]: inactive; no positive results

COc1ccc(CN(CCN(C)C)c2ccccn2)cc1
outcome [2]: inactive; no positive results

c1ccc2c(c1)Nc1ccccc1S2
outcome [2]: inactive; no positive results

O=C1OC(=O)c2ccccc21
outcome [2]: inactive; no positive results

O.O=S(=O)([O-])[O-].[Mn+2]
outcome [2]: inactive; no positive results

CC(C)(C)NC[C@H](O)COc1cccc2c1CCCC2=O
outcome [2]: inactive; no positive results

O=[N+]([O-])c1cccc2ccccc12
outcome [2]: inactive; no positive results

c1ccc2sc(SNC3CCCCC3)nc2c1
outcome [2]: inactive; no positive results

Nc1ccc(NCCO)c([N+](=O)[O-])c1
outcome (TD50_Mouse_Note: no positive results, TargetSites_Mouse_Female: NTP bioassay inadequate): inactive; no positive results

Cn1c(N)nc2ncc(-c3ccccc3)cc21
Potency (TD50_Mouse_Note: TD50 is harmonic mean of more than one positive test, TargetSites_Mouse_Female: hematopoietic system): 0.127 mmol/kg/day

Nc1ccc(-c2ccc(F)cc2)cc1
Potency [4]: 0.00609 mmol/kg/day

CC(=O)O[C@]1(C(C)=O)CC[C@H]2[C@@H]3C=C(Cl)C4=CC(=O)[C@@H]5C[C@@H]5[C@]4(C)[C@H]3CC[C@@]21C
Potency (TD50_Mouse_Note: TD50 is harmonic mean of more than one positive test, TargetSites_Mouse_Female: liver, stomach): 0.0525 mmol/kg/day

CCN(Cc1cccc(S(=O)(=O)[O-])c1)c1ccc(C(=C2C=CC(=[N+](C)C)C=C2)c2ccc(N(CC)Cc3cccc(S(=O)(=O)O)c3)cc2)cc1
outcome [2]: inactive; no positive results

O=C1O[C@H]([C@H](O)CO)C(O)=C1O
outcome [2]: inactive; no positive results

O=c1cc(CO)occ1O
Potency (TD50_Mouse_Note: TD50 is harmonic mean of more than one positive test, TargetSites_Mouse_Female: thyroid gland): 4.63 mmol/kg/day

O[C@H]([C@H](O)[C@@H](O)CBr)[C@H](O)CBr
Potency (TD50_Mouse_Note: positive test results only by intraperitoneal or intravenous injection, TD50 is harmonic mean of more than one positive, TargetSites_Mouse_Female: hematopoietic system, lung): 0.0357 mmol/kg/day

Nc1ccc(N)c2c1C(=O)c1c(N)ccc(N)c1C2=O
outcome [2]: inactive; no positive results

NC(=O)OCC(COC(N)=O)c1ccccc1
Potency [4]: 31.1 mmol/kg/day

CN1C(=O)C[C@@H](C(=O)N[C@@H](Cc2cnc[nH]2)C(=O)N2CCC[C@H]2C(N)=O)NC1=O
outcome [2]: inactive; no positive results

CNC(=O)Oc1cccc2ccccc12
outcome [2]: inactive; no positive results

Nc1ccc(Oc2ccc(Cl)cc2)cc1
Potency (TargetSites_Mouse_Female: urinary bladder, vascular system): 1.58 mmol/kg/day

COc1c2occc2cc2ccc(=O)oc12
outcome [2]: inactive; no positive results

Cc1cc(Cl)ccc1OCC(=O)O
outcome [2]: inactive; no positive results

CC(N)=S
Potency (TD50_Mouse_Note: TD50 is harmonic mean of more than one positive test, harmonic mean of TD50 includes a value for upper 99% confidence li, TargetSites_Mouse_Female: liver): 0.117 mmol/kg/day

CC[C@H]1OC(=O)C[C@@H](O)[C@H](C)[C@@H](O[C@@H]2O[C@H](C)[C@@H](O[C@H]3C[C@@](C)(O)[C@@H](O)[C@H](C)O3)[C@H](N(C)C)[C@H]2O)[C@@H](CC=O)C[C@@H](C)C(=O)/C=C/C(C)=C/C1CO[C@@H]1O[C@H](C)[C@@H](O)[C@@H](OC)[C@H]1OC (some centres undefined)
outcome [2]: inactive; no positive results

COc1cc2c(c3oc(=O)c4c(c13)CCC4=O)C1C=COC1O2 (centres undefined)
outcome [2]: inactive; no positive results

Cc1ccc(Cc2cnc(NCCSCc3ccc(CN(C)C)o3)[nH]c2=O)cn1
outcome [2]: inactive; no positive results

CCCCC(CC)CO (centres undefined)
Potency [3]: 12.9 mmol/kg/day

O.O.O.O.O.O.O=S(=O)([O-])[O-].[Ni+2]
outcome [2]: inactive; no positive results
